Measurements published in patent EP0164635A2, “Imidazothiazolemethylene-acetohydrazide derivatives, preparation thereof and pharmaceutical composition having diuretic activity” (MEDIOLANUM FARMACEUTICI s.r.l., priority 1984, dated 1985).
Values joined by “and” are separate entries in the source; they are usually repeats but may differ in a detail not shown here. Identical values can stand only once.

Columns and labels:
in vivo = conditions: rat
rats = assay: Diuretic activity: urinary sodium excretion over 6 hours after oral administration; assay type: in vivo, rat; conditions: read-out: Diuretic effect %; for response vs control in vivo at 20 mg/kg: dose 20 mg/kg oral; for response vs control in vivo at 5 mg/kg: dose 5 mg/kg oral
Protocol: The first series of tests was carried out to rats orally administered with distilled water (25 ml/kg) containing the product under test, previously suspended in Tween 80 (1% v/v with respect to water). Urina of the 6 hours following the treatment was collected in order to measure the sodium concentration, by means of atomic absorption. The ratio of the meq/100 g of body weight of the treated animals to the corresponding ratio of the meq/100 g of body weight of the control animals (treated with the sole vehicle) was calculated, in order to determine the dose of the test compound doubling or trebling or anyway increasing the sodium excretion.

rat [1] = assay: Excreted urinary volumes after oral administration, with a second water load after 0-3 h; assay type: in vivo
Protocol: (§1) The compounds were administered by the oral route, under the same conditions as described in the previous test, but the animals, after the O-3 hours interval, were treated with further 25 ml/kg of distilled water, by intubation.

rat [2] = assay: Excreted urinary electrolytes after oral administration, with a second water load after 0-3 h; assay type: in vivo
Protocol: as §1

[3] = rat, sodium urinary excretion in 6 h vs controls (control = 100)

CN(C)CC(=O)NN=Cc1c(-c2ccc(Cl)cc2)nc2sccn12 [Example 4]
LD50 (in vivo; ip): > 1000 mg/kg
LD50 (in vivo; po): > 1000 mg/kg
response vs control in vivo at 20 mg/kg (rats; [3]): 170%

NS(=O)(=O)c1cc2c(cc1C(F)(F)F)NCNS2(=O)=O [Hydroflumethia-zide, hydroflumethiazide, reference compound]
LD50 (in vivo; iv): 750 mg/kg
response vs control in vivo at 5 mg/kg (rats; [3]): 260%

CC(=O)Nc1nnc(S(N)(=O)=O)s1 [Acetazolamide, acetazolamide, reference compound]
response vs control in vivo at 2.5 mg/kg (rats; Rattus norvegicus, po, 6 h): 200%

Cc1nc2sccn2c1C=NNC(=O)CN(C)C [Example 2]
LD50 (in vivo; ip): ~600 mg/kg
LD50 (in vivo; po): ~1500 mg/kg

Cc1ccc(-c2nc3sccn3c2C=NNC(=O)CN(C)C)cc1 [Example 5]
LD50 (in vivo; ip): > 3000 mg/kg
LD50 (in vivo; po): > 3000 mg/kg
response vs control in vivo at 5 mg/kg (rats; [3]): 130%

Cc1cn2c(C=NNC(=O)CN(C)C)c(-c3ccccc3)nc2s1 [Example 8, N,N-Dimethylaminoacetyl-[[2-methyl-6-phenyl-imida-zo[2,1-b]thiazole-5-yl]methylene]hydrazide]
LD50 (in vivo; ip): > 3000 mg/kg
LD50 (in vivo; po): > 3000 mg/kg
response vs control in vivo at 1 mg/kg (rats; dose 1 mg/kg oral, rat, sodium urinary excretion in 6 h vs controls (control = 100)): 300%
EXCRETED URINARY VOLUMES WITH RESPECT TO BODY WEIGHT (rat [1]; 2.5 mg/kg, 0-3 h): 0.0265 L/kg
EXCRETED URINARY VOLUMES WITH RESPECT TO BODY WEIGHT (rat [1]; 2.5 mg/kg, 0-6 h): 0.0432 L/kg
EXCRETED URINARY VOLUMES WITH RESPECT TO BODY WEIGHT (rat [1]; 2.5 mg/kg, 3-6 h): 0.0167 L/kg
EXCRETED URINARY VOLUMES WITH RESPECT TO BODY WEIGHT (rat [1]; 10 mg/kg, 0-3 h): 0.0345 L/kg
EXCRETED URINARY VOLUMES WITH RESPECT TO BODY WEIGHT (rat [1]; 10 mg/kg, 0-6 h): 0.0509 L/kg
EXCRETED URINARY VOLUMES WITH RESPECT TO BODY WEIGHT (rat [1]; 10 mg/kg, 3-6 h): 0.0164 L/kg
EXCRETED URINARY ELECTROLYTES WITH RESPECT TO BODY WEIGHT, K^+ (rat [2]; 10 mg/kg, 0-3 h): 0.66 mEq/kg
EXCRETED URINARY ELECTROLYTES WITH RESPECT TO BODY WEIGHT, Na^+ (rat [2]; 10 mg/kg, 0-3 h): 2.24 mEq/kg
EXCRETED URINARY ELECTROLYTES WITH RESPECT TO BODY WEIGHT, K^+ (rat [2]; 10 mg/kg, 0-6 h): 0.99 mEq/kg
EXCRETED URINARY ELECTROLYTES WITH RESPECT TO BODY WEIGHT, Na^+ (rat [2]; 10 mg/kg, 0-6 h): 2.39 mEq/kg
EXCRETED URINARY ELECTROLYTES WITH RESPECT TO BODY WEIGHT, K^+ (rat [2]; 10 mg/kg, 3-6 h): 0.33 mEq/kg
EXCRETED URINARY ELECTROLYTES WITH RESPECT TO BODY WEIGHT, Na^+ (rat [2]; 10 mg/kg, 3-6 h): 0.15 mEq/kg
EXCRETED URINARY ELECTROLYTES WITH RESPECT TO BODY WEIGHT, K^+ (rat [2]; head prints 10 mg/kg, 0-3 h): 0.48 mEq/kg
EXCRETED URINARY ELECTROLYTES WITH RESPECT TO BODY WEIGHT, Na^+ (rat [2]; head prints 10 mg/kg, 0-3 h): 1.32 mEq/kg
EXCRETED URINARY ELECTROLYTES WITH RESPECT TO BODY WEIGHT, K^+ (rat [2]; head prints 10 mg/kg, 0-6 h): 0.83 mEq/kg
EXCRETED URINARY ELECTROLYTES WITH RESPECT TO BODY WEIGHT, Na^+ (rat [2]; head prints 10 mg/kg, 0-6 h): 1.38 mEq/kg
EXCRETED URINARY ELECTROLYTES WITH RESPECT TO BODY WEIGHT, K^+ (rat [2]; head prints 10 mg/kg, 3-6 h): 0.35 mEq/kg
EXCRETED URINARY ELECTROLYTES WITH RESPECT TO BODY WEIGHT, Na^+ (rat [2]; head prints 10 mg/kg, 3-6 h): 0.056 mEq/kg

CC(=O)S[C@@H]1CC2=CC(=O)CC[C@]2(C)[C@H]2CC[C@@]3(C)[C@@H](CC[C@@]34CCC(=O)O4)[C@H]12 [Spironolactone, spironolactone, reference compound]
response vs control in vivo at 20 mg/kg (rats; [3]): 360%

NS(=O)(=O)c1cc(C(=O)O)c(NCc2ccco2)cc1Cl [Furosemide, furosemide, reference compound]
response vs control in vivo at 10 mg/kg (rats; dose 10 mg/kg oral, rat, sodium urinary excretion in 6 h vs controls (control = 100)): 490%
EXCRETED URINARY VOLUMES WITH RESPECT TO BODY WEIGHT (rat [1]; 10 mg/kg, 0-3 h): 0.0365 L/kg and 0.0265 L/kg
EXCRETED URINARY VOLUMES WITH RESPECT TO BODY WEIGHT (rat [1]; 10 mg/kg, 0-6 h): 0.0451 L/kg and 0.0472 L/kg
EXCRETED URINARY VOLUMES WITH RESPECT TO BODY WEIGHT (rat [1]; 10 mg/kg, 3-6 h): 0.0107 L/kg and 0.0186 L/kg
EXCRETED URINARY ELECTROLYTES WITH RESPECT TO BODY WEIGHT, K^+ (rat [2]; 10 mg/kg, 0-3 h): 0.87 mEq/kg and 1.02 mEq/kg
EXCRETED URINARY ELECTROLYTES WITH RESPECT TO BODY WEIGHT, Na^+ (rat [2]; 10 mg/kg, 0-3 h): 1.30 mEq/kg and 1.82 mEq/kg
EXCRETED URINARY ELECTROLYTES WITH RESPECT TO BODY WEIGHT, K^+ (rat [2]; 10 mg/kg, 0-6 h): 1.15 mEq/kg and 1.11 mEq/kg
EXCRETED URINARY ELECTROLYTES WITH RESPECT TO BODY WEIGHT, Na^+ (rat [2]; 10 mg/kg, 0-6 h): 1.38 mEq/kg and 1.85 mEq/kg
EXCRETED URINARY ELECTROLYTES WITH RESPECT TO BODY WEIGHT, K^+ (rat [2]; 10 mg/kg, 3-6 h): 0.24 mEq/kg and 0.13 mEq/kg
